From US20090325933A1, “Pyrimidinone Derivatives and Their Use as a Drug” (Ipsen Pharma S.A.S., priority 2006, published 2009)
Read-outs that look alike come from different tables or passages of the source.

Target: T1, human CB2 receptors (Homo sapiens, UniProt P34972)
T1 construct: expressed in transfected cells; membrane preparations
Assay: Affinity for human CB2 cannabinoid receptors: inhibition of [3H]-CP55940 binding to transfected CHO-K1 cell membranes
Conditions: inhibition constant value range, [3H]-CP55940 1 nM, Cheng-Prusoff
Experimental: The affinity of the compounds of the present invention for the different sub-types of cannabinoid receptors was measured according to procedures analogous to those described hereafter for the human CB2 receptor.
Study of the Affinity of the Compounds for the Human CB2 Cannabinoid Receptors:
The affinity of the compounds of the invention for the human CB2 receptors is determined by measuring the inhibition of the binding of [^3H]-CP55940 to transfected CHO-K1 cell membrane preparations.
The CHO-K1 cells expressing the human CB2 receptors in stable fashion are cultured in an RPMI 1640 medium containing 10% foetal calf serum, 2 mM of glutamine, 100 U/ml of penicillin, 0.1 mg/ml of streptomycin and 0.5 mg/ml of G418. The cells are collected with 0.5 mM of EDTA and centrifuged at 500 g for 5 minutes at 4° C. The pellet is re-suspended in phosphate buffered saline medium (PBS) and centrifuged at 500 g for 5 minutes at 4° C. The pellet is re-suspended in a Tris 50 mM buffer medium at pH 7.4 and centrifuged at 500 g for 5 minutes at 4° C. The cells are lysed by sonication and centrifuged at 39,000 g for 10 minutes at 4° C. The pellet is re-suspended in the Tris 50 mM buffer medium at pH 7.4 and centrifuged at 50,000 g for 10 minutes at 4° C. The membranes obtained in this last pellet are stored at −80° C.
Measurement of the competitive inhibition of the binding of the [^3H]-CP55940 to the CB2 receptors is carried out in duplicate using 96-well polypropylene plates. The cell membranes (10 μg of proteins/well) are incubated with the [^3H]-CP55940 (1 nM) for 60 minutes at 25° C. in a Tris-HCl 50 mM buffer medium, pH 7.4, comprising 0.1% bovine serum albumin (BSA), 5 mM of MgCl2, and 50 μg/ml of bacitracin.
The bound [^3H]-CP55940 is separated from the free [^3H]-CP55940 by filtration through GF/C glass fibre filter plates (Unifilter, Packard) pre-impregnated with 0.1% polyethylenimine (P.E.I.), using a Filtermate 196 (Packard). The filters are washed with Tris-HCl 50 mM buffer, pH 7.4 at 0-4° C. and the radioactivity present is determined using a counter (Packard Top Count).
The specific binding is obtained by subtracting the non-specific binding (determined in the presence of 0.1 μM of WIN55212-2 from the total binding). The data are analyzed by computer-assisted non-linear regression (MDL). For each test, a Cheng-Prusoff correction is made in order to convert the IC50 to the inhibition constant, Ki.
where [L] is the concentration of the radioligand used in the test and Kd is the radioligand equilibrium dissociation constant.

T1 sequence (P34972 whole entry): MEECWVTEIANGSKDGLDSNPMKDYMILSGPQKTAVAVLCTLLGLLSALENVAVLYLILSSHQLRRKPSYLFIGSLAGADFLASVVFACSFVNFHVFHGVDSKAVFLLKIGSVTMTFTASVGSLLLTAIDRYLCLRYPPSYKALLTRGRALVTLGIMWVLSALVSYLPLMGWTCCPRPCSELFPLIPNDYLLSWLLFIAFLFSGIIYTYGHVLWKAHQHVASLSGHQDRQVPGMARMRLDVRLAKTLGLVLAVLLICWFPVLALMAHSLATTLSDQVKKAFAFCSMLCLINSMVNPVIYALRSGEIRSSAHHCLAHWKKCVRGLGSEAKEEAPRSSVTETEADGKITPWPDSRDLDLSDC

Ki (read-out: Ki < 5 μM) [µM]	Ki (read-out: Ki < 0.5 μM) [µM]	Structure (SMILES)
< 5	–	COc1ccccc1CCn1c(-c2ccc(-c3ccccc3)cc2)nc2ccsc2c1=O [Example 1]
< 5	–	COc1ccc(CCn2c(-c3ccc(-c4ccccc4)cc3)nc3ccsc3c2=O)cc1OC [Example 2]
< 5	–	O=c1c2sccc2nc(-c2ccc(-c3ccccc3)cc2)n1CCc1cccs1 [Example 3]
< 5	< 0.5	O=c1c2sccc2nc(-c2ccc(-c3ccccc3)cc2)n1CCc1ccc(Cl)cc1Cl [Example 6]
< 5	< 0.5	O=c1c2sccc2nc(-c2ccc(-c3ccccc3)cc2)n1CCc1ccc(Cl)c(Cl)c1 [Example 7]
< 5	–	Cc1ccccc1CCn1c(-c2ccc(-c3ccccc3)cc2)nc2ccsc2c1=O [Example 8]
< 5	–	Cc1ccc(CCn2c(-c3ccc(-c4ccccc4)cc3)nc3ccsc3c2=O)cc1C [Example 9]
< 5	< 0.5	O=c1c2sccc2nc(-c2ccc(-c3ccccc3)cc2)n1CCC1CCCCC1 [Example 11]
< 5	< 0.5	O=c1c2sccc2nc(-c2ccc(-c3ccccc3)cc2)n1CCC1CCOCC1 [Example 12]
< 5	< 0.5	O=c1c2sccc2nc(-c2ccc(-c3ccccc3)cc2)n1CCc1ccccc1 [Example 13]
< 5	–	O=c1c2sccc2nc(-c2ccc(-c3ccccc3)cc2)n1CCc1cccnc1 [Example 14]
< 5	< 0.5	O=c1c2sccc2nc(-c2ccc(-c3ccccc3)cc2)n1CCc1ccncc1 [Example 15]
< 5	< 0.5	O=c1c2sccc2nc(-c2ccc(C3CCCCC3)cc2)n1CCC1CCCCC1 [Example 16]
< 5	< 0.5	O=c1c2sccc2nc(-c2ccc(C3CCCCC3)cc2)n1CCC1CCOCC1 [Example 17]
< 5	< 0.5	O=c1c2sccc2nc(-c2ccc(C3CCCCC3)cc2)n1CCc1ccccc1 [Example 18]
< 5	–	O=c1c2sccc2nc(-c2ccc(-c3cccs3)cc2)n1CCC1CCOCC1 [Example 19]
< 5	< 0.5	O=c1c2sccc2nc(-c2ccc(-c3cccs3)cc2)n1CCc1ccccc1 [Example 20]
< 5	–	O=c1c2sc3ccccc3c2nc(-c2ccc(-c3ccccc3)cc2)n1CCC1CCOCC1 [Example 22]
< 5	< 0.5	O=c1c2sccc2nc(-c2ccc(-c3ccccc3)cc2)n1CCN1CCCCC1 [Example 24]
< 5	< 0.5	O=C1c2ccccc2C(=O)c2cc(-c3nc4ccsc4c(=O)n3CCN3CCCCC3)ccc21 [Example 25]
< 5	< 0.5	O=c1c2sccc2nc(-c2ccc(-c3ccccc3)cc2)n1CCN1CCCC1 [Example 26]

Ki (read-out: Ki < 5 μM) [µM]	Ki (read-out: Ki < 0.5 μM) [µM]	Structure (SMILES)
< 5	< 0.5	O=c1c2sccc2nc(-c2ccc(-c3ccccc3)cc2)n1CCN1CCOCC1 [Example 27]
< 5	< 0.5	O=C(c1ccccc1)c1ccc(-c2nc3ccsc3c(=O)n2CCN2CCCCC2)cc1 [Example 29]
< 5	< 0.5	O=C(c1ccccc1)c1ccc(-c2nc3ccsc3c(=O)n2CCN2CCOCC2)cc1 [Example 30]
< 5	< 0.5	O=c1c2sccc2nc(-c2ccc(Cc3ccccc3)cc2)n1CCN1CCCCC1 [Example 32]
< 5	< 0.5	O=c1c2sccc2nc(-c2ccc(-c3ccccc3)cc2)n1CCN1CCCCCC1 [Example 34]
< 5	< 0.5	O=c1c2sccc2nc(-c2ccc(C3CCCCC3)cc2)n1CCN1CCCC1 [Example 35]
< 5	< 0.5	O=c1c2sccc2nc(-c2ccc(C3CCCCC3)cc2)n1CCN1CCCCC1 [Example 36]
< 5	< 0.5	O=c1c2sccc2nc(-c2ccc(C3CCCCC3)cc2)n1CCN1CCOCC1 [Example 37]
< 5	< 0.5	O=c1c2sccc2nc(-c2ccc(C3CCCCC3)cc2)n1CCN1CCCCCC1 [Example 38]
< 5	< 0.5	O=c1c2sccc2nc(-c2ccc(-c3cccs3)cc2)n1CCN1CCCCC1 [Example 39]
< 5	< 0.5	O=c1c2sccc2nc(-c2ccc(-c3cccs3)cc2)n1CCN1CCOCC1 [Example 40]
< 5	–	CC(C)(C)c1ccc(-c2ccc(-c3nc4ccsc4c(=O)n3CCN3CCCCC3)cc2)cc1 [Example 41]
< 5	< 0.5	CC1CCCN(CCn2c(-c3ccc(-c4ccccc4)cc3)nc3ccsc3c2=O)C1 (stereo not shown) [Example 42]
< 5	< 0.5	CC1CCN(CCn2c(-c3ccc(-c4ccccc4)cc3)nc3ccsc3c2=O)CC1 [Example 43]
< 5	< 0.5	O=c1c2sc3ccccc3c2nc(-c2ccc(-c3ccccc3)cc2)n1CCN1CCCCC1 [Example 44]
< 5	–	O=c1c2sc3ccccc3c2nc(-c2ccc(-c3ccccc3)cc2)n1CCN1CCOCC1 [Example 45]
< 5	< 0.5	Cc1csc2c(=O)n(CCN3CCCCC3)c(-c3ccc(-c4ccccc4)cc3)nc12 [Example 46]
< 5	–	O=c1c2ccsc2nc(-c2ccc(-c3ccccc3)cc2)n1CCC1CCOCC1 [Example 47]
< 5	–	O=c1c2ccsc2nc(-c2ccc(-c3ccccc3)cc2)n1CCN1CCOCC1 [Example 48]
< 5	< 0.5	O=c1c2ccsc2nc(-c2ccc(-c3ccccc3)cc2)n1CCN1CCCCC1 [Example 49]
< 5	< 0.5	O=c1c2sccc2nc(-c2ccc3cc4ccccc4cc3c2)n1CCN1CCCCC1 [Example 50]

Ki (read-out: Ki < 5 μM) [µM]	Ki (read-out: Ki < 0.5 μM) [µM]	Structure (SMILES)
< 5	–	O=c1c2occc2nc(-c2ccc(-c3ccccc3)cc2)n1CCN1CCCCC1 [Example 51]
< 5	–	O=c1c2sccc2nc(-c2ccc3[nH]c4ccccc4c3c2)n1CCN1CCCCC1 [Example 52]
< 5	< 0.5	O=c1c2sccc2nc(C2CCC(c3ccccc3)CC2)n1CCN1CCCCC1 (stereo not shown) [Example 53]
< 5	< 0.5	Cc1ccccc1-c1ccc(-c2nc3ccsc3c(=O)n2CCN2CCCCC2)cc1 [Example 54]
< 5	< 0.5	Cc1sc2c(=O)n(CCN3CCCCC3)c(-c3ccc(-c4ccccc4)cc3)nc2c1C [Example 55]
< 5	< 0.5	O=c1c2sccc2nc(-c2ccc(-c3ccc(Cl)c(Cl)c3)cc2)n1CCN1CCCCC1 [Example 56]
< 5	–	CC(C)(C)c1cc2nc(-c3ccc(-c4ccccc4)cc3)n(CCN3CCCCC3)c(=O)c2s1 [Example 57]
< 5	< 0.5	O=c1c2sc(-c3ccccc3)cc2nc(-c2ccc(-c3ccccc3)cc2)n1CCN1CCCCC1 [Example 58]
< 5	–	O=c1c2sccc2nc(-c2ccc(-c3ccccc3)cc2)n1CCC1C[C@H]2CC[C@@H]1C2 (stereo partly shown) [Example 59]
< 5	< 0.5	Cc1ccc(-c2ccc(-c3nc4ccsc4c(=O)n3CCN3CCCCC3)cc2)cc1C [Example 60]
< 5	< 0.5	Cc1cc2nc(-c3ccc(-c4ccccc4)cc3)n(CCN3CCCCC3)c(=O)c2s1 [Example 61]
< 5	< 0.5	Cc1cccc(-c2ccc(-c3nc4ccsc4c(=O)n3CCN3CCCCC3)cc2)c1 [Example 62]
< 5	< 0.5	O=c1c2sccc2nc(-c2ccc(-c3cccc(F)c3)cc2)n1CCN1CCCCC1 [Example 63]
< 5	< 0.5	O=c1c2sccc2nc(-c2ccc(-c3ccccc3Cl)cc2)n1CCN1CCCCC1 [Example 64]
< 5	< 0.5	Cc1ccc(-c2ccc(-c3nc4ccsc4c(=O)n3CCN3CCCCC3)cc2)cc1 [Example 65]
< 5	< 0.5	O=c1c2sccc2nc(-c2ccc(-c3ccccc3C(F)(F)F)cc2)n1CCN1CCCCC1 [Example 66]
< 5	< 0.5	O=c1c2sccc2nc(-c2ccc(-c3ccccc3)c(F)c2)n1CCN1CCCCC1 [Example 67]
< 5	< 0.5	Cc1cc2nc(-c3ccc(-c4ccccc4C)cc3)n(CCN3CCCCC3)c(=O)c2s1 [Example 68]
< 5	< 0.5	O=c1c2sccc2nc(-c2ccc(-c3ccccc3F)cc2)n1CCN1CCCCC1 [Example 69]
